{
  "source": "patent US20110142914A1",
  "about": "“INHALABLE COMPOSITIONS HAVING ENHANCED BIOAVAILABILITY” (CYTOTECH LABS, LLC, priority 2007, published 2011)",
  "test_system": "IL-12",
  "experiment": "Inflammatory response to pulmonary administration: BAL supernatant ELISA for IL-12 elevation",
  "assay_type": "in vivo",
  "conditions": "mice",
  "description": "Inflammatory response to the administration of CoQ10 (or the liposomal concentrate of CoQ10 produced in Example 1 above) to the lungs. Surgery is performed on sacrificed mice to expose the pleural cavity and trachea at the throat. […] An aliquot (about 0.75 mL) of phosphate buffered saline is instilled through the cannula into the lungs and removed to wash the bronchial and alveolar surfaces. This process is repeated for a total of three washes. The phosphate buffered saline containing cells is placed into centrifuge vials and centrifuged at about 3000 rpm (MiniSpin Plus, Eppendorf International, Hamburg, Del.). The supernatant is removed leaving the collected cells in the pellet. The supernatant from the BAL (Bronchoalveolar Lavage) is analyzed by enzyme-linked immunosorbent assay (ELISA) for IL-12 elevation (n=2 per sample tested).",
  "data": [
    {"compound": "COC1=C(OC)C(=O)C(C/C=C(\\C)CC/C=C(\\C)CC/C=C(\\C)CC/C=C(\\C)CC/C=C(\\C)CC/C=C(\\C)CC/C=C(\\C)CC/C=C(\\C)CC/C=C(\\C)CCC=C(C)C)=C(C)C1=O", "note": "[CoQ10, Coenzyme Q10]", "values": [
      {"measurement": "inflammation of the lung", "value": "not a cause of inflammation of the lung"},
      {"measurement": "rise in IL-12 levels (BAL supernatant, ELISA)", "setting": "n=2 per sample tested", "value": "not connected to a rise in IL-12 levels"}
    ]}
  ]
}
